Where a SMILES comes first, the peptide text is derived from it.
Target: T1, Neutrophil Elastase (Homo sapiens, UniProt P08246)
T1 construct: purchased Enzo Life Science BML-AK497-001
T1 sequence (P08246 30-267): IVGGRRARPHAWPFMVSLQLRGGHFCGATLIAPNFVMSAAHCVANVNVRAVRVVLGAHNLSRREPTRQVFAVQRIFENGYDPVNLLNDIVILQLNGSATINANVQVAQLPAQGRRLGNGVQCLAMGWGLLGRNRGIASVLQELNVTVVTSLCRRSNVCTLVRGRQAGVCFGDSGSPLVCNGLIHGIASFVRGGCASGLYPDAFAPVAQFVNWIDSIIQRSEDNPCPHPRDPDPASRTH
Assay: Elastase activity inhibitory ability, Neutrophil Elastase colorimetric method
Assay type: biochemical
Experimental: In order to confirm the elastase activity inhibitory ability of Regentide-041, it was measured using the Neutrophil Elastase colorimetric method (BML-AK497-001, Enzo Life Science, Pennsylvania, USA). Specifically, after an assay buffer and D.W. were diluted at 1:1, an elastase reagent and a substrate reagent were diluted to have final concentrations of 2.2 μU/μl and 100 μM, respectively. In addition, Regentide-041 was diluted to have final concentrations of 0.1, 1, 10, 50, 100, and 150 μM, respectively. A working solution was prepared by mixing the assay buffer, elastase reagent, and Regentide-041 diluent. […] of the working solution was put in each well of a 96-well plate and reacted at 37° C. for 5 minutes. Next, […] of the substrate reagent was put, and absorbance was measured for 15 minutes at absorbance 405 nm with a Microplate reader (Epoch 2 Microplate spectrophotometer. Biotek, Winooski, VT, USA).

CC[C@H](C)[C@H](NC(=O)CNC(=O)CNC(=O)[C@H](CCCNC(=N)N)NC(=O)[C@@H]1CCCN1C(=O)[C@@H](NC(=O)[C@@H](N)CS)[C@@H](C)CC)C(=O)N[C@@H](CS)C(=O)N[C@@H](CC(C)C)C(=O)N[C@H](C(=O)N[C@@H](C)C(=O)N[C@@H](CC(C)C)C(N)=O)C(C)C [Regentide-041, CIPRGGICLVAL-NH2] (H-CIPRGGICLVAL-NH2) showed an inhibition at 150 µM of 52.7 ± 1.2%.

— patent US12606595B2, “Regentide-041 and composition comprising Regentide-041 for improving skin condition” (NINEBIOPHARM CO., LTD., priority 2020, dated 2026)
